According to PubChem BioAssay AID1963434 (Molecular Pharmacology Branch, DTP, NCI, 2024):
“And” between values parts separate entries of the source, which are not always exact repeats. Equal entries are not always repeated. Values belong to the molecule of their own block, whether it stands above or below them.

Tested on: 755483-174-R-J1-PDC complex spheroid growth, percent test/control
Assay: Anticancer human tumor 755483-174-R-J1-PDC patient-derived rhabdomyosarcoma cell line growth inhibition [Asc]
Details: for viability, T/C: stronger effect = lower value
In short: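 Tumor cells were grown as multicellular spheroids with stromal HUVEC and mesenchymal stem cells and treated singly or in combination. Concentrations fell in half-log steps from the clinical Cmax, or from 10 microM where none was known.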

[1] = curve of first compound, second compound 0.1 µM
[2] = curve of first compound, second compound 0.316 µM
[3] = curve of first compound, second compound 1 µM
[4] = curve of first compound, second compound 3.16 µM
[5] = curve of first compound, second compound 10 µM
[6] = second compound 0.1 µM, first compound 0.00316 µM
[7] = second compound 0.1 µM, first compound 0.01 µM
[8] = second compound 0.1 µM, first compound 0.0316 µM
[9] = second compound 0.1 µM, first compound 0.1 µM
[10] = second compound 0.1 µM, first compound 0.316 µM
[11] = second compound 0.1 µM, first compound 1 µM
[12] = second compound 0.316 µM, first compound 0.00316 µM
[13] = second compound 0.316 µM, first compound 0.01 µM
[14] = second compound 0.316 µM, first compound 0.0316 µM
[15] = second compound 0.316 µM, first compound 0.1 µM
[16] = second compound 0.316 µM, first compound 0.316 µM
[17] = second compound 0.316 µM, first compound 1 µM
[18] = second compound 1 µM, first compound 0.00316 µM
[19] = second compound 1 µM, first compound 0.01 µM
[20] = second compound 1 µM, first compound 0.0316 µM
[21] = second compound 1 µM, first compound 0.1 µM
[22] = second compound 1 µM, first compound 0.316 µM
[23] = second compound 1 µM, first compound 1 µM
[24] = second compound 3.16 µM, first compound 0.00316 µM
[25] = second compound 3.16 µM, first compound 0.01 µM
[26] = second compound 3.16 µM, first compound 0.0316 µM
[27] = second compound 3.16 µM, first compound 0.1 µM
[28] = second compound 3.16 µM, first compound 0.316 µM
[29] = second compound 3.16 µM, first compound 1 µM
[30] = second compound 10 µM, first compound 0.00316 µM
[31] = second compound 10 µM, first compound 0.01 µM
[32] = second compound 10 µM, first compound 0.0316 µM
[33] = second compound 10 µM, first compound 0.1 µM
[34] = second compound 10 µM, first compound 0.316 µM
[35] = second compound 10 µM, first compound 1 µM
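Further: spheroids exposed to compounds for seven days before readout.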

IC50 [1]: < 3.16 nM
IC50 [2]: < 3.16 nM
IC50 [3]: < 3.16 nM
IC50 [4]: < 3.16 nM
IC50 [5]: < 3.16 nM
SMILES: CNC(C)C(=O)NC1CN(S(=O)(=O)c2cccc(S(=O)(=O)N3CCC4CCC(C(=O)NC(c5ccccc5)c5ccccc5)N4C(=O)C(NC(=O)C(C)NC)C3)c2)CCC2CCC(C(=O)NC(c3ccccc3)c3ccccc3)N2C1=O (configuration not stated) + Cc1c(S(C)(=O)=O)c(-c2cc(F)cc(N3CCN(c4ccc(NS(=O)(=O)c5ccc(NC(CCN6CCC(C(=O)OCCCP(=O)(O)O)CC6)CSc6ccccc6)c(S(=O)(=O)C(F)(F)F)c5)cc4)CC3)c2)c(-c2ccc(Cl)cc2)n1C(C)C
viability, T/C [6]: 27.1%
viability, T/C [7]: 20%
viability, T/C [8]: 39.1%
viability, T/C [9]: 20.2%
viability, T/C [10]: 13.6%
viability, T/C [11]: 12.2%
viability, T/C [12]: 36.2%
viability, T/C [13]: 24.1%
viability, T/C [14]: 15.8%
viability, T/C [15]: 24.4%
viability, T/C [16]: 14.7%
viability, T/C [17]: 12.1%
viability, T/C [18]: 29.8%
viability, T/C [19]: 23.5%
viability, T/C [20]: 18.2%
viability, T/C [21]: 22.5%
viability, T/C [22]: 11.4%
viability, T/C [23]: 10.7%
viability, T/C [24]: 23.7%
viability, T/C [25]: 15.9%
viability, T/C [26]: 16.7%
viability, T/C [27]: 12%
viability, T/C [28]: 9.91%
viability, T/C [29]: 26.8%
viability, T/C [30]: 26.3%
viability, T/C [31]: 14.5%
viability, T/C [32]: 16.1%
viability, T/C [33]: 14.2%
viability, T/C [34]: 16.2%
viability, T/C [35]: 7.68%

IC50 [1]: < 3.16 nM
IC50 [2]: < 3.16 nM
IC50 [3]: < 3.16 nM
IC50 [4]: < 3.16 nM
IC50 [5]: < 3.16 nM
SMILES: COc1c(OCCCN2CCOCC2)ccc2c3n(c(=NC(=O)c4cnc(N)nc4)nc12)CCN3 + Cc1c(S(C)(=O)=O)c(-c2cc(F)cc(N3CCN(c4ccc(NS(=O)(=O)c5ccc(NC(CCN6CCC(C(=O)OCCCP(=O)(O)O)CC6)CSc6ccccc6)c(S(=O)(=O)C(F)(F)F)c5)cc4)CC3)c2)c(-c2ccc(Cl)cc2)n1C(C)C
viability, T/C [6]: 39.6%
viability, T/C [7]: 48%
viability, T/C [8]: 33.2%
viability, T/C [9]: 15.8%
viability, T/C [10]: 6.56%
viability, T/C [11]: 4%
viability, T/C [12]: 32.8%
viability, T/C [13]: 28.1%
viability, T/C [14]: 31.9%
viability, T/C [15]: 13%
viability, T/C [16]: 5.57%
viability, T/C [17]: 2.62%
viability, T/C [18]: 34.3%
viability, T/C [19]: 31.4%
viability, T/C [20]: 18.6%
viability, T/C [21]: 17.4%
viability, T/C [22]: 5.22%
viability, T/C [23]: 2.16%
viability, T/C [24]: 26.5%
viability, T/C [25]: 29.1%
viability, T/C [26]: 20.2%
viability, T/C [27]: 8.47%
viability, T/C [28]: 5.03%
viability, T/C [29]: 1.66%
viability, T/C [30]: 40.9%
viability, T/C [31]: 25.5%
viability, T/C [32]: 19.1%
viability, T/C [33]: 12.1%
viability, T/C [34]: 4.21%
viability, T/C [35]: 1.7%

IC50 (curve of first compound, second compound 0.01 µM): 103 nM
IC50 (curve of first compound, second compound 0.0316 µM): < 9.49 nM
IC50 [1]: < 9.49 nM
IC50 [2]: < 9.49 nM
IC50 [3]: < 9.49 nM
SMILES: Cc1nc(N2CCC3(CC2)COC(C)C3N)c(CO)nc1Sc1ccnc(N)c1Cl (configuration not stated) + CNC(C)C(=O)NC1CN(S(=O)(=O)c2cccc(S(=O)(=O)N3CCC4CCC(C(=O)NC(c5ccccc5)c5ccccc5)N4C(=O)C(NC(=O)C(C)NC)C3)c2)CCC2CCC(C(=O)NC(c3ccccc3)c3ccccc3)N2C1=O
viability, T/C (second compound 0.01 µM, first compound 0.00949 µM): 46.1%
viability, T/C (second compound 0.01 µM, first compound 0.03 µM): 57.3%
viability, T/C (second compound 0.01 µM, first compound 0.0949 µM): 50.5%
viability, T/C (second compound 0.01 µM, first compound 0.3 µM): 35.6%
viability, T/C (second compound 0.01 µM, first compound 0.949 µM): 23%
viability, T/C (second compound 0.01 µM, first compound 3 µM): 24.7%
viability, T/C (second compound 0.0316 µM, first compound 0.00949 µM): 41.4%
viability, T/C (second compound 0.0316 µM, first compound 0.03 µM): 45.6%
viability, T/C (second compound 0.0316 µM, first compound 0.0949 µM): 40.8%
viability, T/C (second compound 0.0316 µM, first compound 0.3 µM): 32.7%
viability, T/C (second compound 0.0316 µM, first compound 0.949 µM): 23.2%
viability, T/C (second compound 0.0316 µM, first compound 3 µM): 18.2%
viability, T/C (second compound 0.1 µM, first compound 0.00949 µM): 26.6%
viability, T/C (second compound 0.1 µM, first compound 0.03 µM): 45.9%
viability, T/C (second compound 0.1 µM, first compound 0.0949 µM): 20.3%
viability, T/C (second compound 0.1 µM, first compound 0.3 µM): 29.9%
viability, T/C (second compound 0.1 µM, first compound 0.949 µM): 30.1%
viability, T/C (second compound 0.1 µM, first compound 3 µM): 18.5%
viability, T/C (second compound 0.316 µM, first compound 0.00949 µM): 50.1%
viability, T/C (second compound 0.316 µM, first compound 0.03 µM): 32%
viability, T/C (second compound 0.316 µM, first compound 0.0949 µM): 22.1%
viability, T/C (second compound 0.316 µM, first compound 0.3 µM): 24.7%
viability, T/C (second compound 0.316 µM, first compound 0.949 µM): 23.5%
viability, T/C (second compound 0.316 µM, first compound 3 µM): 11.4%
viability, T/C (second compound 1 µM, first compound 0.00949 µM): 17.1%
viability, T/C (second compound 1 µM, first compound 0.03 µM): 16.9%
viability, T/C (second compound 1 µM, first compound 0.0949 µM): 21.7%
viability, T/C (second compound 1 µM, first compound 0.3 µM): 24.9%
viability, T/C (second compound 1 µM, first compound 0.949 µM): 19.1%
viability, T/C (second compound 1 µM, first compound 3 µM): 12.2%

IC50 (curve of compound): > 1000 nM
SMILES: CCN1CCN(Cc2ccc(Nc3ncc(F)c(-c4cc(F)c5nc(C)n(C(C)C)c5c4)n3)nc2)CC1
viability, T/C (compound 0.00316 µM): 112% and 99% and 77.5%
viability, T/C (compound 0.01 µM): 85.6% and 83.7% and 100%
viability, T/C (compound 0.0316 µM): 119% and 93.6% and 74.1%
viability, T/C (compound 0.1 µM): 120% and 83.7% and 118%
viability, T/C (compound 0.316 µM): 115% and 99.3% and 99.2%
viability, T/C (compound 1 µM): 113% and 132% and 99%
